Measurements: patent publication US20070134157A1, “Biological assay” (priority 2004, published 2007)

How the values were obtained:
[1] = system: Sprague Dawley rats; assay: rat electrocardiogram/electrophysiology model, 20-min continuous intravenous infusion; format: in vivo; settings: for Percent change AH / Percent change ARP / Percent change AVRP / Percent change HR / Percent change HV / Percent change MAP / Percent change PR / Percent change QRS / Percent change QT / Percent change QTc / Percent change VRP: after a 20 min infusion, ± se
Experimental: (§1) Adult, male Sprague Dawley rats (240-280 g) were used for all studies. Rats were anesthetized with a mixture of ketamine:xylazine (85 mg/kg:5 mg/kg, ip). Catheters were placed in the left femoral artery and left femoral vein for the measurement of arterial pressure and the administration of test agents, respectively. In addition, a catheter was placed in the right femoral vein to administer a continuous infusion of ketamine:xylazine (45 mg/kg/hr:1.5 mg/kg/hr). A recording/stimulating catheter was then placed in the right jugular vein and advanced to the right atrium. Two electrodes were used to obtain bipolar atrial electrogram recording, and two were used for bipolar pacing of the atria/heart. The right carotid artery was then cannulated with a second recording/stimulating catheter, and the catheter was advance into the left ventricle. Two electrodes were used to obtain bipolar ventricular and His bundle electrograms, and two were used to pace the ventricle. Needle electrodes were placed subcutaneously in the right axillary and left inguinal areas to record lead II electrocardiogram. After equilibration and baseline readings, continuous infusion of test agent or vehicle was started and readings taken at 10 min and 20 min after start of infusion. Blood samples for plasma analysis were obtained from the femoral artery catheter at 10 and 20 min after the start of the infusion. Atrial effective (ARP), ventricular effective (VRP), and AV node effective (AVRP) refractory periods determined as follows: excitation threshold was determined for the atria and ventricles, then a conditioning train of stimuli (S1, 1 ms duration) at a cycle length of 150 ms was delivered at 1×-2× threshold followed by an extrastimulus (S2, 1 ms duration) at 2× threshold. The S1—S2 coupling interval was decreased by 5 ms, then 1 ms intervals to obtain refractory periods. ARP and VRP were defined as the shortest coupling interval that permitted propagation of an atrial or ventricular extrastimulus. AVRP was defined as the shortest coupling interval that permitted the propagation of the atria extrastimulus through the AV node to elicit ventricular depolarization. In addition, PR, AH (both a measure of AV nodal conduction) and HV (a measure of His-Purkinje conduction) intervals were measured during short (10-20 sec) trains of fixed S1—S1 interval pacing of 150 ms. QT interval was obtained during sinus rhythm. […] Am J Physiol. 1998;274:H747-51) were reported. Compounds were dissolved in either saline or N,N-dimethylformamide. Intravenous infusion of test agents or vehicles was normalized to body weight.
In an extension of these studies to longer duration infusions, 3-[(dimethylamino)methyl]-6-methoxy-2-methyl-4-phenylisoquinolin-1(2H)-one hydrochloride and (2-isopropyl-5-methylcyclohexyl)(diphenyl)phosphine oxide were tested in a 20-min intravenous continuous infusion protocol. […] Plasma levels of 3-[(dimethylamino)methyl]-6-methoxy-2-methyl-4-phenylisoquinolin-1(2H)-one hydrochloride at 10 and 20 min after the start of a 0.1 mg/kg/min infusion were 3.4±0.2 μM and 2.8±0.3 μM, respectively.

[2] = plasma levels during continuous intravenous infusion; format: in vivo, rat; settings: for concentration at 10 min / concentration at 20 min: male, Sprague Dawley, rat, plasma, intravenous; for concentration at 10 min: 10 min after start; for concentration at 20 min: 20 min after start
Experimental: as §1

[3] = system: Sprague Dawley rats; assay: rat electrocardiogram/electrophysiology model, 5-min intravenous infusion paradigm; format: in vivo; settings: readings immediately after the infusion, dose dependent
Experimental: as §1
Two infusion paradigms were tested with two structurally distinct Kv1.5 antagonists, 3-[(dimethylamino)methyl]-6-methoxy-2-methyl-4-phenylisoquinolin-1(2H)-one hydrochloride (described in WO 02/24655 A1) and (2-isopropyl-5-methylcyclohexyl)(diphenyl)phosphine oxide (described in U.S. Pat. No. 6,214,809 B1). In an initial shorter duration infusion paradigm, a 5-min intravenous infusion of compound or vehicle was administered with electrocardiogram/electrophysiology readings determined immediately after the infusion.

[4] = 20-min infusion, dose that produced a similar increase in VRP as the Kv1.5 antagonists
[5] = 0.1 mg/kg/min, 20-min after start of infusion
[6] = 0.1 mg/kg/min, 10 min after start of infusion
[7] = 0.2 mg/kg/min, DMF vehicle, 20-min infusion
[8] = 0.2 mg/kg/min, saline vehicle, 10-min post infusion
[9] = 0.2 mg/kg/min, saline vehicle, 20 min after start of infusion
[10] = 0.2 mg/kg/min, 10-min post infusion
[11] = 0.2 mg/kg/min, listed as (2-isopropyl-5-methylcyclohexyl)(diphenyl)phosphine oxide
[12] = dose that caused a similar decrease in blood pressure as 0.03 mg/kg/min amlodipine
[13] = doses that caused similar blood pressure lowering as higher infusion rates of amlodipine

## CS(=O)(=O)Nc1ccc2c(c1)C(O)CC1(CCN(C3CCc4cc(C#N)ccc4C3)CC1)O2.Cl [Ikr blocker, N-[1′-(6-cyano-1,2,3,4-tetrahydro-2(R)-naphthalenyl)-3,4-dihydro-4(R)-hydroxyspiro[2H-1-benzopyran-2,4′-piperidin]-6-YL]-,(+)-,monohydrochloride]
[1]; 0.0001 mg/kg/min
  Percent change AH: 2 ± 1%
  Percent change ARP: 0 ± 2%
  Percent change AVRP: 1 ± 2%
  Percent change HR: −1 ± 5%
  Percent change HV: −1 ± 1%
  Percent change MAP: −7 ± 8%
  Percent change PR: 2 ± 2%
  Percent change QRS: 0 ± 1%
  Percent change QT: 1 ± 1%
  Percent change QTc: 0 ± 2%
  Percent change VRP: −2 ± 1%
[1]; 0.001 mg/kg/min
  Percent change AH: 9 ± 1%
  Percent change ARP: 2 ± 4%
  Percent change AVRP: 11 ± 1%
  Percent change HR: 3 ± 4%
  Percent change HV: −4 ± 3%
  Percent change MAP: −1 ± 3%
  Percent change PR: 8 ± 1%
  Percent change QRS: 3 ± 1%
  Percent change QT: −1 ± 1%
  Percent change QTc: 1 ± 1%
  Percent change VRP: 0 ± 1%
[1]; 0.03 mg/kg/min
  Percent change AH: 13 ± 4%
  Percent change ARP: 4 ± 4%
  Percent change AVRP: 21 ± 3%
  Percent change HR: 22 ± 5%
  Percent change HV: 4 ± 3%
  Percent change MAP: 18 ± 5%
  Percent change PR: 9 ± 4%
  Percent change QRS: 0 ± 1%
  Percent change QT: 11 ± 3%
  Percent change QTc: 23 ± 5%
  Percent change VRP: 7 ± 2%
[1]; [4]
  increase in AH interval (delay in AV node conduction): ~13%
  increase in AVRP: 21%
  increase in HR: 22%
  increase in MAP: 18%
[1]; infusion of lower doses
  ARP: no change
  AVRP: significant changes
  VRP: no change
[2]; [4]
  plasma concentrations: ~0.6 µM
[2]; infusion of lower doses
  plasma concentration: 0.027 µM

## CCOC(=O)C1=C(COCCN)NC(C)=C(C(=O)OC)C1c1ccccc1Cl (centres unmarked) [amlodipine]
[1]; 0.03 mg/kg/min for 20 min
  decrease in blood pressure: −14%
[1]; higher infusion rates
  decrease in blood pressure: 30%
  increase in AV nodal conduction: 6%
  increase in AV nodal refractoriness: 7%

## COc1ccc2c(=O)n(C)c(CN(C)C)c(-c3ccccc3)c2c1.Cl [compound 1, 3-[(dimethylamino)methyl]-6-methoxy-2-methyl-4-phenylisoquinolin-1(2H)-one hydrochloride]
[1]; [5]
  ARP: no change
  increase in QT: 10%
  increase in QTc: 16%
  increase in VRP: 5%
  increase in heart rate: 5%
[1]; [6]
  ARP: no change
  QT: slight increase
  QTc: slight increase
  VRP: no change
[1]; [7]
  increase in ARP: 8%
  increase in QT: 11%
  increase in VRP: 13%
[1]; 0.2 mg/kg/min
  Percent change AH: 5 ± 1%
  Percent change ARP: 5 ± 3%
  Percent change AVRP: 4 ± 2%
  Percent change HR: −1 ± 4%
  Percent change HV: 0 ± 3%
  Percent change MAP: 2 ± 2%
  Percent change PR: 3 ± 1%
  Percent change QRS: 0 ± 0%
  Percent change QT: 12 ± 2%
  Percent change QTc: 11 ± 2%
  Percent change VRP: 13 ± 1%
[1]; [8]
  QT: significant increases
  VRP: significant increases
[1]; [9]
  change in RR interval: −17%
  heart rate: significant increases
  increase in ARP: 12%
  increase in QT interval: 14%
  increase in QTc: 24%
  increase in VRP: 11%
[2]; 0.2 mg/kg/min, dissolved in saline or DMF
  plasma levels, saline group versus DMF group: similar
[2]; 0.1 mg/kg/min infusion
  concentration at 10 min: 3.4 ± 0.2 µM
  concentration at 20 min: 2.8 ± 0.3 µM
[2]; 0.2 mg/kg/min infusion
  concentration at 10 min: 6.3 ± 0.5 µM
  concentration at 20 min: 5.5 ± 0.2 µM
[3]
  ARP: increases
  QT interval: increases
  VRP: increases

## CC1CCC(C(C)C)C(P(=O)(c2ccccc2)c2ccccc2)C1 (centres unmarked) [compound 2, (2-isopropyl-5-methylcyclohexyl)(diphenyl)phosphine oxide]
[1]; [10]
  ARP: significant increases
  QT: significant increases
  VRP: significant increases
[1]; 0.2 mg/kg/min
  Percent change AH: −1 ± 1%
  Percent change ARP: 26 ± 4%
  Percent change AVRP: −1 ± 1%
  Percent change HR: 8 ± 6%
  Percent change HV: −8 ± 3%
  Percent change MAP: 4 ± 4%
  Percent change PR: −3 ± 1%
  Percent change QRS: −3 ± 4%
  Percent change QT: 27 ± 7%
  Percent change QTc: 33 ± 8%
  Percent change VRP: 22 ± 5%
[1]; [11]
  Percent change ARP: 24%
  Percent change QT: 27%
  Percent change QTc: 33%
  Percent change VRP: 22%
[3]
  ARP: increases
  QT interval: increases
  VRP: increases

## COc1ccc([C@@H]2Sc3ccccc3N(CCN(C)C)C(=O)[C@@H]2OC(C)=O)cc1 [diltiazem]
[1]; [12]
  decrease in heart rate: 12%
  increase in AV nodal conduction: 9%
  increase in AV nodal refractoriness: 10%
[1]; [13]
  blood pressure lowering: 23%
  increase in AV nodal conduction: 15%
  increase in AV nodal refractoriness: 19%

## CCN(CC)CCNC(=O)c1ccc(N)cc1 [procainamide]
[1]; infusion at increasing rates
  HV interval: dose-dependent increases
  QRS interval: dose-dependent increases
  blood pressure: without having significant effects
  heart rate: without having significant effects
